Experiments:
Test in all cases: Kirby-Bauer agar disk diffusion
MRSA USF652 = type: cell-based, Staphylococcus aureus; settings: Table 1; 6-mm disks, 20 μg test compound, 24 h, triplicate
Procedure, shortened: (§1)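 Test compound (20 μg) was impregnated onto 6-mm disks, air-dried and placed on agar plates inoculated with the β-lactamase-producing MRSA strain. After 24 h the diameter of the growth-inhibition zone was measured in mm. Reported values are triplicate means.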

MRSA USF653 = type: cell-based, Staphylococcus aureus; settings: Table 1; 6-mm disks, 20 μg test compound, 24 h, triplicate
Procedure, shortened: as §1

MRSA USF654 = type: cell-based, Staphylococcus aureus; settings: Table 1; 6-mm disks, 20 μg test compound, 24 h, triplicate
Procedure, shortened: as §1

MRSA USF655 = type: cell-based, Staphylococcus aureus; settings: Table 1; 6-mm disks, 20 μg test compound, 24 h, triplicate
Procedure, shortened: as §1

MRSA USF656 = type: cell-based, Staphylococcus aureus; settings: Table 1; 6-mm disks, 20 μg test compound, 24 h, triplicate
Procedure, shortened: as §1

MRSA USF657 = type: cell-based, Staphylococcus aureus; settings: Table 1; 6-mm disks, 20 μg test compound, 24 h, triplicate
Procedure, shortened: as §1

MRSA USF658 = type: cell-based, Staphylococcus aureus; settings: Table 1; 6-mm disks, 20 μg test compound, 24 h, triplicate
Procedure, shortened: as §1

MRSA USF659 = type: cell-based, Staphylococcus aureus; settings: Table 1; 6-mm disks, 20 μg test compound, 24 h, triplicate
Procedure, shortened: as §1

Micrococcus luteus = type: cell-based; settings: Table 1; 6-mm disks, 20 μg test compound, 24 h, triplicate
Procedure, shortened: (§2)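 Agar disk diffusion used 6-mm air-dried disks carrying 20 μg of compound. Values are mean diameters (mm) of the growth-inhibition zone at 24 h, from triplicate experiments. S. epidermidis and S. simulans were clinical isolates.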

[1] = tested on: Staphylococcus aureus (ATCC 25923); type: cell-based; settings: Table 1; 6-mm disks, 20 μg test compound, 24 h, triplicate
Procedure, shortened: as §2

[2] = tested on: Staphylococcus epidermidis; type: cell-based; settings: Table 1; 6-mm disks, 20 μg test compound, 24 h, triplicate
Procedure, shortened: as §2

S. simulans (ATCC 11631) = type: cell-based, Staphylococcus simulans; settings: Table 1; 6-mm disks, 20 μg test compound, 24 h, triplicate
Procedure, shortened: as §2

[3] = tested on: S. saprophyticus (ATCC 3552); type: cell-based, Staphylococcus saprophyticus; settings: Table 1; 6-mm disks, 20 μg test compound, 24 h, triplicate
Procedure, shortened: as §2

N. gonorrhoeae = type: cell-based, Neisseria gonorrhoeae; settings: Table 1; 6-mm disks, 20 μg test compound, 24 h, triplicate; β-lactamase positive
Protocol: In this study, a selection of N-methylthio-substituted β-lactams are examined for antimicrobial activity by the Kirby-Bauer disk diffusion method on agar plates. A variety of common Gram-positive and Gram-negative bacteria are tested, including clinical isolates of methicillin-resistant Staphylococcus aureus (MRSA).
Compound susceptibility measurements are obtained from agar disk diffusion experiments using 6-mm air-dried disks impregnated with 20 μg of the test compound. The values correspond to the average diameters in mm (triplicate experiments) for the zone of growth inhibition observed after 24 h. Staphylococcus aureus (ATCC 25923) and β-lactamase-producing strains of methicillin-resistant Staphylococcus aureus (labeled as MRSA USF652-659) are obtained from Lakeland Regional Medical Center, Lakeland, Fla. Staphylococcus epidermidis, Staphylococcus simulans, Staphylococcus simulans, and Microcossus luteus are clinical isolates from University of South Florida Medical Clinic. Nieserria gonnorhoeae (β-lactamase positive) is obtained from the Tampa Branch State Laboratory. PenG is penicillin G (potassium salt). Table 1 provides the zones of growth inhibition that are observed after 24 hours using the lactams of FIGS. 1A-1I (designated A-I, respectively).

COC(=O)c1ccc(C2C(OC)C(=O)N2SC)cc1 (racemic) [Lactam F]
zone of growth inhibition, average diameter (MRSA USF652): 12 mm
zone of growth inhibition, average diameter (MRSA USF653): 14 mm
zone of growth inhibition, average diameter (MRSA USF654): 12 mm
zone of growth inhibition, average diameter (MRSA USF655): 14 mm
zone of growth inhibition, average diameter (MRSA USF656): 11 mm
zone of growth inhibition, average diameter (MRSA USF657): 12 mm
zone of growth inhibition, average diameter (MRSA USF658): 12 mm
zone of growth inhibition, average diameter (MRSA USF659): 13 mm
zone of growth inhibition, average diameter (Micrococcus luteus): 20 mm
zone of growth inhibition, average diameter [1]: 12 mm
zone of growth inhibition, average diameter [2]: 12 mm
zone of growth inhibition, average diameter (S. simulans (ATCC 11631)): 0 mm
zone of growth inhibition, average diameter [3]: 8 mm
zone of growth inhibition, average diameter (N. gonorrhoeae): 11 mm

COC1C(=O)N(SC)C1C=Cc1ccccc1 (racemic) [Lactam B]
zone of growth inhibition, average diameter (MRSA USF652): 19 mm
zone of growth inhibition, average diameter (MRSA USF653): 23 mm
zone of growth inhibition, average diameter (MRSA USF654): 16 mm
zone of growth inhibition, average diameter (MRSA USF655): 17 mm
zone of growth inhibition, average diameter (MRSA USF656): 19 mm
zone of growth inhibition, average diameter (MRSA USF657): 17 mm
zone of growth inhibition, average diameter (MRSA USF658): 16 mm
zone of growth inhibition, average diameter (MRSA USF659): 15 mm
zone of growth inhibition, average diameter (Micrococcus luteus): 20 mm
zone of growth inhibition, average diameter [1]: 18 mm
zone of growth inhibition, average diameter [2]: 23 mm
zone of growth inhibition, average diameter (S. simulans (ATCC 11631)): 11 mm
zone of growth inhibition, average diameter [3]: 12 mm
zone of growth inhibition, average diameter (N. gonorrhoeae): 11 mm

COC1C(=O)N(SC)C1c1ccc(C#N)cc1 (racemic) [Lactam G]
zone of growth inhibition, average diameter (MRSA USF652): 14 mm
zone of growth inhibition, average diameter (MRSA USF653): 16 mm
zone of growth inhibition, average diameter (MRSA USF654): 12 mm
zone of growth inhibition, average diameter (MRSA USF655): 12 mm
zone of growth inhibition, average diameter (MRSA USF656): 13 mm
zone of growth inhibition, average diameter (MRSA USF657): 10 mm
zone of growth inhibition, average diameter (MRSA USF658): 12 mm
zone of growth inhibition, average diameter (MRSA USF659): 12 mm
zone of growth inhibition, average diameter (Micrococcus luteus): 21 mm
zone of growth inhibition, average diameter [1]: 14 mm
zone of growth inhibition, average diameter [2]: 20 mm
zone of growth inhibition, average diameter (S. simulans (ATCC 11631)): 0 mm
zone of growth inhibition, average diameter [3]: 14 mm
zone of growth inhibition, average diameter (N. gonorrhoeae): 12 mm

From patent US6946458B2, “N-thiolated beta-lactams: novel antibacterial agents for methicillin-resistant Staphylococcus aureus” (University of South Florida, priority 1999, dated 2005)
